This note sets out measurements from patent publication US20070122395A1, “Genetic and pharmacological regulation of antidepressant-sensitive biogenic amine transporters through PKG/p38 map kinase” (Vanderbilt University, priority 2005, published 2007).

Series [1] deals with T1, NCCc1c[nH]c2ccc(O)cc12.
T1 construct: The full-length cDNA encoding hSERT in the mammalian expression vector pcDNA3.1; expressed in transfected cells; host or cells: HeLa
The series is described as follows: cells, lysate or membranes. The following applies: other: saturation kinetics of 5-HT transport, hSERT; pH 7.4; 37.0 °C. Format: cell-based, human.

For series [2], the system named is p38 MAPK. Format: cell-based, rat. The procedure: Assays of p38 MAPK Activation. […] Medium was removed by aspiration, and cells were washed once with KRH buffer and then incubated in triplicate at 37° C. in KRH buffer with or without p38 MAPK activators for 5-10 min. Assay buffer was removed, and cells were immediately fixed with fresh 4% formaldehyde (Sigma) in PBS for 20 min at room temperature and washed four times with 1×PBS containing 0.1% Triton X-100 (Sigma) (5 min per wash) prior to 1 h of blocking with Odyssey blocking buffer (Li-Cor Biosciences, Lincoln, Nebr.). RBL-2H3 cells were subsequently probed with dual phosphorylated (Thr(P) and Tyr(P)) p38 MAPK polyclonal antibody (Cell Signaling; 1:400) in Odyssey blocking buffer with gentle mixing for 2 h at room temperature. Cells were then washed four times with 1×PBS containing 0.1% Tween 20 (Sigma) for 5 min. Bound antibody was detected with fluorescence-labeled secondary antibody-Alexa Fluor® 680 (avoiding exposure to light; 1:200 in Odyssey Blocking Buffer, Molecular Probes, Inc., Eugene, Oreg.) for 1 h. After four washes with 1×PBS, 0.1% Tween 20, the plate was scanned, and the captured image of the signal was processed and quantified with the Odyssey™ Infrared Imaging System (Li-Cor Biosciences). For UV radiation to activate p38 MAPK, plates seeded with cells were placed in a UV source (UV Stratalinker 1800, Stratagene, La Jolla, Calif.) that was preset to deliver 4×10^4 μJ/cm^2 at room temperature.

Series [3] concerns mSERT. The series is described as follows: monoamine uptake assay in transfected CHO cells. The following applies: 10-min anisomycin. Format: cell-based, mouse. The procedure: (§1) Cell Culture and Transfection. […] Cells were cultured for 24 h after transfection. The transfection mixture was removed just prior to assay.
Series [4] relates to human NET. The series is described as follows: monoamine uptake assay in transfected CHO cells. Format: cell-based. The following applies: CHO cells, 10-min anisomycin. The procedure: Cell Culture and Transfection. […] CHO cells (ATCC, Manassas, Va.) were maintained at 37° C. in Dulbecco's MEM containing 10% fetal bovine serum, 1% L-Glu, 100 IU/ml penicillin, and 100 μg/ml streptomycin. For comparison of the response of monoamine transporters to p38 MAPK activation, CHO cells were transfected with cDNAs for hSERT, hDAT, or hNET (100 ng/well for a 24-well plate). Transfections of CHO cells were performed using TransIT-LT1 Transfection Reagent (Mirus, Madison, Wis.) according to the manufacturer's protocol (0.3 μl/well). hSERT, hDAT, or hNET cDNAs were preincubated with the reagent at ambient temperature for 30 min before being added to plated CHO cells. Cells were cultured for 24 h after transfection. The transfection mixture was removed just prior to assay.
CHO cells were plated at 20,000 cells/well 16-24 h before transfection, and the uptake assay was performed 24 h following the transfection. […] Medium was removed by aspiration, and cells were washed once with Krebs-Ringer HEPES (KRH) buffer containing 130 mM NaCl, 1.3 mM KCl, 2.2 mM CaCl2, 1.2 mM MgSO4, 1.2 mM KH2PO4, 1.8 g/liter glucose, 10 mM HEPES, pH 7.4. […] Cells were solubilized with 0.5 ml of Microscint 20 (PerkinElmer Life Sciences), and tritium-labeled monoamine accumulation was quantitated using a TopCount plate scintillation counter (PerkinElmer Life Sciences).

The test system of series [5] is hDAT. Put plainly: monoamine uptake assay in transfected CHO cells. Format: cell-based, human. The following applies: 10-min anisomycin. The procedure: as §1
For series [6], the target named is T2, hSERT (Homo sapiens, UniProt P31645).
T2 construct: The full-length cDNA encoding hSERT in the mammalian expression vector pcDNA3.1; expressed in transfected cells; host or cells: HeLa
T2 sequence (P31645 whole entry): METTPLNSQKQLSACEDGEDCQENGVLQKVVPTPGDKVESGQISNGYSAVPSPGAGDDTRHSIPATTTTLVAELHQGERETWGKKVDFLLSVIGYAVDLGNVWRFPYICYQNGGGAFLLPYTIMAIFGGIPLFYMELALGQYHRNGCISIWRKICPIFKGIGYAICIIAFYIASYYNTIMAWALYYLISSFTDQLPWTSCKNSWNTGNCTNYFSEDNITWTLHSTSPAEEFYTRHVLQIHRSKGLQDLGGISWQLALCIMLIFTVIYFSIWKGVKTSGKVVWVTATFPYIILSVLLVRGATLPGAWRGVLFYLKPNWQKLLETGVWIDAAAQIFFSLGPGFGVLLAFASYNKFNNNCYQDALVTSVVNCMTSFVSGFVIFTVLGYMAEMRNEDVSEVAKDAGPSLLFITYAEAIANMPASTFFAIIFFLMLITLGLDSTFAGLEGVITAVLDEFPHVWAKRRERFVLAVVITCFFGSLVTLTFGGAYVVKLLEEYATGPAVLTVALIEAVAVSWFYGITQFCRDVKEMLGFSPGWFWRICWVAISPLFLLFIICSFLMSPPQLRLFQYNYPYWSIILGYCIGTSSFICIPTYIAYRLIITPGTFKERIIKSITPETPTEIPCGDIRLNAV
The series is described as follows: [3H]5-HT transport (SERT uptake) assay in transfected HeLa cells. Format: cell-based. The procedure:
(§2) Transfection and Transport Studies. HeLa cells, maintained at 37° C. in a 5% CO2 humidified incubator, were grown in complete medium (Dulbecco's Modified Eagle's Medium (DMEM, Invitrogen), 10% fetal bovine serum, 2 mM L-glutamine, 100 units/ml penicillin, and 100 μg/ml streptomycin).
(§3) Transport, Binding, Biotinylation and Phosphorylation Studies. […] To establish levels and biosynthetic progression of hSERT protein produced from mutant cDNAs, HeLa cells were plated in 6-well dishes at 500,000 cells per well and transfected 12 h later. Twenty four hours after transfection, whole cell detergent extracts were blotted for hSERT (mAb Technologies, Inc., 1:1000) using enhanced chemiluminescence (ECL, Amersham) detection.

The subject of series [7] is hSERT variants. The series is described as follows: 5-HT transport regulation by phorbol ester in transfected HeLa cells, all variants. Format: cell-based, human. The following applies: each hSERT variant; slightly greater for Thr4Ala, Lys605Asn, Pro621Ser. The procedure:
as §2, §3

In series [8] the test system is hSERT variants Leu255Met, Ser293Phe, Pro339Leu, Leu362Met, Ile425Val. The series is described as follows: 5-HT transport regulation in transfected HeLa cells, responsive variants. It is filed as cell-based, human. The procedure:
as §2, §3

The subject of series [9] is hSERT variants Thr4Ala, Gly56Ala, Glu215Lys, Lys605Asn, Pro621Ser. The series is described as follows: 5-HT transport regulation in transfected HeLa cells, non-responsive variants. It is filed as cell-based, human. The procedure: as §2, §3
The target of series [10] is T2, hSERT. The series is described as follows: [125I]RTI-55 binding to intact transfected HeLa cells (surface and total SERT). It is filed as cell-based.
Series [11] deals with hSERT variants that responded with uptake increases. The series is described as follows: [125I]RTI-55 surface binding to intact transfected HeLa cells, responsive variants. It is filed as cell-based, human.
The test system of series [12] is five hSERT variants that failed to elicit uptake increases. The series is described as follows: [125I]RTI-55 surface binding to intact transfected HeLa cells, non-responsive variants. The following applies: five non-responsive variants. It is filed as cell-based, human.
For series [13], the system named is Ala56 homozygous lymphocyte lines. The series is described as follows: 5-HT uptake in genotyped lymphocyte lines. Format: cell-based, human. The source says: (§4) Genotyping and Lymphocyte Studies. Lymphocyte lines were derived from autistic pedigrees recruited by Susan E. Folstein (Johns Hopkins Univ), from the Autism Genetics Resource Exchange (AGRE) collection (www.agre.org/), and from the NIMH Human Genetics Initiative Repository (www.nimhgenetics.org/) at Rutgers University. DNA from lymphoblastoid cell lines was genotyped via TaqMan-based allelic discrimination, using an Applied Biosystems (Foster City, Calif.) Assay-by-Design and independently confirmed by PCR and direct sequence analysis. […] Lymphocyte were pelleted at 1500 rpm, 5 min and washed with KRH assay buffer. A total of 1×10^6 cells in triplicate were pre-warmed (37° C.) in a shaking water bath (10 min) in 12×75 polypropylene tubes in KRH buffer containing 100 μM pargyline and 100 μM ascorbic acid+/−modifiers.

For series [14], the system named is Gly56Ala heterozygous lymphocytes. Put plainly: 5-HT uptake in genotyped lymphocyte lines. It is filed as cell-based, human. The following applies: Gly56Ala heterozygous cells.
Description: as §4

Series [15] deals with lymphocytes homozygous for the Gly variant (hSERT Gly56). The series is described as follows: 5-HT uptake in genotyped lymphocyte lines. It is filed as cell-based, human. The following applies: Gly56 homozygous lymphocytes.
Description: as §4

Series [16] relates to hSERT. The series is described as follows: in situ SERT phosphorylation in [32P]-prelabeled transfected HeLa cells. Format: cell-based, human. The following applies: 8BrcGMP 100 μM, 60 min.
The test system of series [17] is hSERT Gly56Ala. Described as above. Format: cell-based, human.
The target of series [18] is T3, native SERT in RN46A cells (Rattus norvegicus, UniProt P31652).
T3 construct: derived from rat E13 raphenucleus, that expresses native SERT; endogenous in cells; host or cells: RN46A cells
T3 sequence (P31652 whole entry): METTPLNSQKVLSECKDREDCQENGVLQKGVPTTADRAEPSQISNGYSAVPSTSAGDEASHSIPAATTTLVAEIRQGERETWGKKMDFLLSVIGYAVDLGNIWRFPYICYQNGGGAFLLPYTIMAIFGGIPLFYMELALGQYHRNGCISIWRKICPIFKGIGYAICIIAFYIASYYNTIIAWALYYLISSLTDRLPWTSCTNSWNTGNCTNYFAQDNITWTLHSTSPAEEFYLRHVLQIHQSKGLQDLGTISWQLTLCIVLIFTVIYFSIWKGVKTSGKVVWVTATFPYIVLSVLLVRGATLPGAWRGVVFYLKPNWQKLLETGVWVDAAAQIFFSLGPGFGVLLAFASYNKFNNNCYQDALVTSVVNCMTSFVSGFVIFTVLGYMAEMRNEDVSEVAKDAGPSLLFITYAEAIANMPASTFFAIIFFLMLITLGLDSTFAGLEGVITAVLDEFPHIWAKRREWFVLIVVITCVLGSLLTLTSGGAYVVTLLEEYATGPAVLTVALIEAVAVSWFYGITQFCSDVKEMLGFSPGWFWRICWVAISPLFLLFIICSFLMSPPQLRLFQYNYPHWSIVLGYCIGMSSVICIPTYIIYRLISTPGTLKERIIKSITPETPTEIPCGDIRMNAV
The series is described as follows: [3H]5-HT transport assay in RN46A cells. Format: cell-based. The following applies: RN46A, 10 min treatment.

Where “and” joins values, the source holds several entries; their conditions need not be identical. Identical values can stand only once.

With hSERT (Homo sapiens), in series [1], the Km was 1.00+/−0.47 μM and 1.00+0.17 μM.

In the case of `COc1ccc(C[C@H]2NC[C@H](O)[C@H]2OC(C)=O)cc1` [anisomycin], in series [2] (0.5 and 1.0 μm, 5 min), the “increase in phosphorylated p38 MAPK” value is recorded as 2-3 fold. In addition, in series [2] (5 min treatment), the “level of p38 MAPK phosphorylation stimulation” value was “comparable to stimulation achieved with 8-bromo-cGMP”. Also, the “total p38 MAPK levels” value in [2] (data not shown) is recorded as “No changes”. For the same molecule, the “anisomycin-modulated 5-HT uptake” value in [3] is given as “SB203580-sensitive elevation in 5-HT uptake”. Also, the “anisomycin-modulated NE uptake (NET activity)” value in series [4] is “stimulated to a comparable degree as hSERT”. The “anisomycin-modulated DA uptake” value in series [5] is listed as “small, but significant SB203580-sensitive inhibition of DA uptake”.

`CCCCCCCCCCCCCC(=O)O[C@@H]1[C@@H](C)[C@@]2(O)[C@@H](C=C(CO)C[C@]3(O)C(=O)C(C)=C[C@@H]23)[C@@H]2C(C)(C)[C@]12OC(C)=O` [β-PMA]: the “downregulation of 5-HT transport activity” value in [6] is on record as roughly 40%. Also, the “downregulation of 5-HT transport following β-PMA, relative to hSERT” value in series [7] is reported as “equal to or slightly greater”.

Take `Nc1nc2c(nc(Br)n2[C@@H]2O[C@@H]3COP(=O)(O)O[C@H]3[C@H]2O)c(=O)[nH]1` [8BrcGMP, 8-bromo-cGMP]: the “stimulation of 5-HT transport activity (peak increase)” value in [6] is reported as 50-70%. Besides, the “8BrcGMP effect on SERT activity” value is “dose-dependent, H8-sensitive stimulation of SERT activity comparable to hSERT” in series [8] and “completely insensitive” in series [9]. In addition, the “[125I]RTI-55 surface binding after 8BrcGMP” value was “Parallel changes in [^125I]RTI-55 surface binding” in series [10] (100 μM 8BrcGMP, 5-HT 100 μM as displacer); “elevated [^125I]RTI-55 surface binding” in series [11]; “reduction in [^125I]RTI-55 surface binding” in series [12]. Besides, in series [10] (paroxetine as displacer, data not shown), the “total [125I]RTI-55 binding” value is “no effects on total binding”. In addition, the results for the “sensitivity of 5-HT uptake to activator” value in [13] and in series [14] were “lacked sensitivity” and “intermediate sensitivity”, respectively. The entries for the “stimulation of 5-HT transport” value in series [15] and in [18] were “robust 8BrcGMP stimulation of 5-HT transport” and “increase in 5-HT transport”, respectively. Moreover, the “elevation of basal SERT phosphorylation” value in [16] is recorded as roughly 80%. In addition, the “SERT phosphorylation response to 8BrcGMP” value in series [17] is on record as “could not be further phosphorylated”.
